According to patent US9681664B2, “Macrocyclic picolinamides as fungicides” (Dow Agrosciences LLC, priority 2012, dated 2017):
Where two headings read alike, the source gives them in different places.

What was measured:
[1] = test system: Phakopsora pachyrhizi; assay: Asian soybean rust (PHAKPA) disease control; assay type: in vivo; details: topical, high volume
Procedure: Technical grades of materials were dissolved in acetone, which were then mixed with nine volumes of water containing 0.011% Tween 20. The fungicide solutions were applied onto soybean seedlings using an automated booth sprayer to run-off. All sprayed plants were allowed to air dry prior to further handling.
Soybean plants (variety Williams 82) were grown in soil-less Metro mix, with one plant per pot. Two weeks old seedlings were used for testing. Plants were inoculated either 3 days prior to or 1 day after fungicide treatments. Plants were incubated for 24 h in a dark dew room at 22° C. and 100% RH then transferred to a growth room at 23° C. for disease to develop. Disease severity was assessed on the sprayed leaves.

[2] = test system: Mycosphaerella graminicola; Anamorph: Septoria tritici; assay: Leaf blotch of wheat (SEPTTR) disease control on wheat seedlings; assay type: in vivo; details: Zymoseptoria tritici, High volume application, 100 ppm
In short: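 Protective or curative format: Septoria tritici inoculation either preceded or followed fungicide application to first-leaf Yuma wheat. Severity scored 0–100%; control expressed versus untreated.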

[3] = test system: Puccinia triticina; Synonym: Puccinia recondite f. sp. tritici; assay: Wheat brown rust (PUCCRT) disease control on wheat seedlings; assay type: in vivo; details: Puccinia triticina, High volume application, 100 ppm
In short: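 Yuma wheat grown to first fully emerged leaf was inoculated with Puccinia triticina spore suspension either before or after fungicide treatment, held overnight at 22° C. and 100% RH in darkness, then kept at 24° C. Fungicide applied by booth sprayer to run-off (acetone/water, 110 ppm Triton X-100) or as EC by track spray.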

[4] = 24 h, 1 Day Protectant, read-out: Disease Control PHAKPA 1DP
[5] = 24 h, 1 Day Protectant, read-out: SEPTTR 1DP disease control
[6] = 72 h, 3 Day Curative, read-out: SEPTTR 3DC disease control
[7] = 24 h, 1 Day Protectant, read-out: PUCCRT 1DP disease control
[8] = 72 h, 3 Day Curative, read-out: PUCCRT 3DC disease control

Row | SMILES | pest or weed control at 25 ppm [1, 4] | pest or weed control at 100 ppm [2, 5] | pest or weed control at 100 ppm [2, 6] | pest or weed control at 100 ppm [3, 7] | pest or weed control at 100 ppm [3, 8] | melting point | pest or weed control at 25 ppm ([1]; 72 h, 3 Day Curative, read-out: Disease Control PHAKPA 3DC)
1 | COc1ccc(O[C@H]2CCC[C@H](NC(=O)c3nccc(OC)c3OCOC(C)=O)C(=O)O[C@@H](C)[C@@H]2OCC(C)C)cc1 [F68] | 80 to 100% | 80 to 100% | 80 to 100% | 80 to 100% | 80 to 100% | 118 to 120 °C | 
2 | COc1ccnc(C(=O)N[C@H]2CCC[C@H](Oc3ccccc3)[C@@H](OC3CCCC3)[C@H](C)OC2=O)c1OCOC(C)=O [F80] | 80 to 100% | 80 to 100% | 80 to 100% | 80 to 100% | 80 to 100% | 148 to 149 °C | 80 to 100%
